Patent publication US20240082392A1, “USE OF SYNTHETIC PEPTIDE FOR THE INDUCTION OF ANTITUMOR AND ANTIVIRAL IMMUNITY” (CENTRO DE INGENIERÍA GENÉTICA Y BIOTECNOLOGÍA, priority 2020, published 2024)
Where a SMILES comes first, the peptide text is derived from it. Bridges are numbered along the chain shown (N, C = ends).

What was measured:
3LL-OVA cells = assay: Cellular immune response, IFN-γ ELISPOT after inoculation of treated cells; format: in vivo, C57/BL6 mice; settings: 3LL-OVA cells treated with 40 μM peptide 3 hours, 5 μM CX4945 or 40 μM Tat 3 hours; lymph node cells after 5 days
L1210 cells [1] = assay: Tumor microenvironment in DBA/2 mice: serum cytokines and intratumoral cell populations; format: in vivo; settings: for modulation in cytokine levels (IL12p70, TNF-α, IL-6, IL-10): Tat 20 mg/kg intratumoral, DOX 10 mM intratumoral, CX4945 75 mg/kg oral twice a day, five days; for intratumoral Foxp3+ T cell levels: peptide 20 mg/kg, DOX 10 mM, Tat 20 mg/kg, CX4945 75 mg/kg oral
Procedure: To study whether the peptide identified as SEQ ID NO: 1 was capable of modulating the tumor microenvironment, female DBA/2 mice, 6-8 weeks old, and between 17-19 grams were inoculated with 0.5×10^6 L1210 cells, subcutaneously, into right flank (inguinal inoculation). Seven days after tumor challenge, 42 mice with palpable and non-measurable tumor were selected, which were random assigned to six groups of seven animals each. […] DOX (10 mM) and Tat peptide (20 mg/kg), were administered intratumorally, in a final volume of 50 μL, a daily inoculation for five days. The compound CX4945 (75 mg/kg) was administered in 25 mM NaH2PO4 buffer, twice a day, orally, for five days. Seven days after the end of the treatment, the mice were euthanized to obtain the tumors (day 18 of the procedure). Before sacrificing the mice, blood samples were obtained for the cytokines (IL-6, IL-10, IL-12p70, TNF-α) detection by ELISA. Tumors were cut into small pieces and transferred to gentleMACS tubes with RPMI medium, supplemented with an enzyme cocktail from Tumor Dissociation kit (Miltenyi Biotech, Germany). Tumor dissociation was performed using the gentleMACS™ Dissociator kit and a tumor dissociation kit (Miltenyi Biotech, Germany). The digested suspension was filtered, centrifuged and labeled with specific antibodies against CD8, CD4, Foxp3, CD11c, CD86 and CD40.

L1210 cells [2] = assay: Vaccination with treated tumor cells, then challenge with live cells; format: in vivo, DBA/2 mice; settings: vaccinated with cells treated with 5 μM CX4945 for 24 hours
Procedure: In order to explore whether the cell death induced by the peptide identified as SEQ ID NO: 1 had any immunomodulatory effect, a vaccination schedule was performed in mice with tumor cells previously treated with the peptide identified as SEQ ID NO: 1. For this purpose, 1×10^6 L1210 cells treated in vitro with 40 μM of the peptide identified as SEQ ID NO: 1, or time-matched untreated cells during 3 hours were subcutaneously injected in 0.1 mL in the inguinal area into right flank of 6-8 weeks female DBA/2 mice. After seven days, 1×10^6 live L1210 cells were inoculated on opposite flank, and tumor growth and volume were evaluated until day 45. Tumors were measured with Vernier calipers, three times a week, tumor volume was estimated using the formula: Volume=width^2 (mm)×length/2 (mm). As a positive control, cells treated with 15 μM DOX for 24 hours were used for vaccination. A group vaccinated with 5 μM CX4945-treated cells for 24 hours was also included. In total 4 groups were formed of 10 mice each group.

HL-60 cells = assay: Phagocytosis of treated tumor cells by M1 and M2 macrophages; format: cell-based; settings: peptide 40 μM and 10 μM 5 hours, CX4945 5 μM 24 hours, Tat 40 μM 5 hours
Procedure: (§1) Treatment with the peptide identified as SEQ ID NO: 1, as described in examples 2 and 3, is capable of increasing “eat me” signals and decreasing “don't eat me” signals. Therefore, it fostered to evaluate whether the treatment with the peptide identified as SEQ ID NO: 1 facilitate phagocytosis of tumor cells by macrophages, and whether this is performed by M1 or M2 macrophages. For that purpose, HL-60 and OCI-AML3 leukemia tumor cell lines were previously stained with 0.5 μM CFSE and treated with 10 or 40 μM of the peptide identified as SEQ ID NO: 1, for five hours, 5 μM CX4945 for 24 hours or 40 μM Tat during 5 hours. Subsequently, cells were washed and co-cultured with each type of M1 and M2 macrophages, at a 1:1 ratio for three hours. Different types of macrophages were obtained from PBMC of healthy donors by Ficoll™ gradient. Monocytes were purified by positive selection, using CD14 beads with an MS column (Miltenyi Biotech, Germany), obtaining 96% purity. Monocytes were seeded at 0.25×10^6 cells/mL/well, in 12-wells plates and were induced with 100 ng/mL of GM-CSF, for seven days, and with 50 ng/mL of IFN-γ for last 24 hours, to obtain M1 macrophages. M2 macrophages were induced with 50 ng/mL of M-CSF for seven days and 100 ng/mL of IL-10 for last 24 hours. […]

OCI-AML3 cells = assay: as above; format: cell-based; settings: peptide 40 μM and 10 μM 5 hours, CX4945 5 μM 24 hours, Tat 40 μM 5 hours
Procedure: as §1

[3] = test system: Lewis Lung Carcinoma cells; assay: Anti-PDL1 therapy in a murine model of lung cancer; format: in vivo, C57/BL6 mice
Text: Taking into account the results obtained in the in vitro test, it was decided to evaluate whether the use of the peptide identified as SEQ ID NO: 1 improved the antitumor efficacy of anti-PDL1 therapy in a murine model of lung cancer. For that, 2×10^5 Lewis Lung Carcinoma cells were subcutaneously implanted (day 0) in 6-8 weeks old C57/BL6 female mice with 17-19 grams of body weight. Nine days after the tumor challenge, 42 animals with 40 mm^3 tumors were randomized into six groups with seven mice each. CX4945 (75 mg/kg) was orally administered in 25 mM NaH2PO4 buffer twice daily. 40 mg/kg of the peptide identified as SEQ ID NO: 1 and 100 μg anti-PDL1 antibody (clone 10F.9G2, isotype rat IgG2b kappa) were intraperitoneally applied. Tumor volume and body weight were determined 3 times a week for 40 days. Tumor volume was measured and calculated as described in Example 7.

PDL1 in A549 cells = assay: PDL1 levels by flow cytometry; format: cell-based; settings: 30 μM peptide, 5 μM CX4945 or 30 μM Tat peptide, 24 hours
Procedure: (§2) Immune checkpoints are currently an important target in cancer immunotherapy, due to their immunosuppressive role during the course of this disease. Taking this into account, effect of the peptide identified as SEQ ID NO: 1 on modulation of PDL1 levels in two non-small cell lung cancer cell lines: […], was evaluated. For that, 5×10^4 cells were seeded in 24-well plates. The day after, cells were treated with 30 μM peptide identified as SEQ ID NO: 1; 5 μM CX4945 or 30 μM Tat peptide, for 24 hours. After treatment, cells were collected, staining with an anti-PDL1 antibody and analyzed by flow cytometry.

PDL1 in H460 cells = assay: PDL1 levels by flow cytometry; format: cell-based; settings: 30 μM peptide, 5 μM CX4945 or 30 μM Tat peptide, 24 hours
Procedure: as §2

[4] = test system: RagOT-I cells / dendritic cells matured with treated 3LL cells; assay: In vitro activation of OT-I CD8+ T cells by dendritic cells, IFN-γ ELISA; format: cell-based, mouse; settings: versus negative control, CX4945 and Tat peptide
Procedure: Additionally, the ability of activating CD8+ T cells in vitro by these dendritic cells matured with peptide-treated 3LL cells was evaluated. For this purpose, dendritic cells previously co-incubated with tumor cells, under the conditions described above, were washed and loaded with the […] peptide from OVA, MHC class I restricted, at different concentrations (0, 10, 30 and 100 pg/mL) during three hours. After that time, they were washed again and co-incubated with RagOT-I cells in a 1:1 ratio for 48 hours. IFN-γ production was finally quantified by ELISA. RagOT-I cells co-incubated with dendritic cells previously incubated with untreated 3LL cells constituted the negative control of experiment.

[5] = test system: OCI-AML3 and HL-60 tumor cells; settings: read-out: IC50 dose
K562 cells = assay: NK cytotoxic activity, Cr51 release; format: cell-based; settings: 50 μM
Procedure: The release of danger signals such as HSP70 and CRT has been reported to be involved in increasing the susceptibility of tumor cells toward cytotoxic activity of NK cells. Therefore, the effect of the peptide identified as SEQ ID NO: 1 on the susceptibility of tumor cells toward NK cytotoxic activity was evaluated. To do that, the classic target cells to NK activity, K562 cells, were employed. Target cells were labeled with Cr^51 (approximate specific activity: 100 μCi/μg) by incubation for 70 minutes at 37° C. Subsequently, target cells were washed three times with RPMI medium supplemented with 2% FBS and seeded in 96-well plates, at a target:effector ratio of 1:25. On the other hand, NK cells were isolated from peripheral blood mononuclear cells (PBMC) of healthy donors, by negative selection, using magnetic beads (Miltenyi Biotec). Thus, CD56+CD3− NK cells were obtained with more than 96% purity. The peptide identified as SEQ ID NO: 1 was added to the co-culture at 12.5; 25 and 50 μM. After 4 hours of incubation, supernatant was collected for the measurement of Cr^51 release using a scintillation counter. The percentage of specific lysis was calculated as follows: […]
Target cells without coincubation with effector cells were employed as spontaneous lysis control. Target cells with the peptide identified as SEQ ID NO: 1 constitute the toxicity control of the peptide.

Compound: O=C(O)c1ccc2c(c1)nc(Nc1cccc(Cl)c1)c1ccncc12 [CX4945]
- response of IFN-γ-secreting effector cells (ELISPOT) against OVA and OVA class I peptide (3LL-OVA cells): not able to generate this type of response
- modulation in cytokine levels (IL12p70, TNF-α, IL-6, IL-10) (L1210 cells [1]): not observed
- intratumoral Foxp3+ T cell levels (L1210 cells [1]): not observed
- vaccine effect of treated cells (L1210 cells [2]): did not induce any vaccine effect
- susceptibility to be phagocytosed by M1 macrophages (HL-60 cells): not observed
- susceptibility to be phagocytosed by M1 macrophages (OCI-AML3 cells): not observed
- tumor volume, combined with anti-PDL1 antibody ([3]; as alone, plus 100 μg anti-PDL1 antibody intraperitoneal, days 9, 12, 15, 18): not observed
- tumor progression (tumor volume), alone ([3]; peptide 40 mg/kg intraperitoneal or CX4945 75 mg/kg oral twice daily, days 9-13): not observed
- % PDL1+ cells (PDL1 in A549 cells): 29.6%
- IFM (PDL1 in A549 cells): 16.2
- PDL1 expression (PDL1 in A549 cells; in words): Differences were not observed
- % PDL1+ cells (PDL1 in H460 cells): 25.2%
- IFM (PDL1 in H460 cells): 15.23
- PDL1 expression (PDL1 in H460 cells; in words): Differences were not observed

Compound: COc1cccc2c1C(=O)c1c(O)c3c(c(O)c1C2=O)C[C@@](O)(C(=O)CO)C[C@@H]3O[C@H]1C[C@H](N)[C@H](O)[C@H](C)O1 [DOX, doxorubicin]
- modulation in cytokine levels (IL12p70, TNF-α, IL-6, IL-10) (L1210 cells [1]): not observed
- intratumoral Foxp3+ T cell levels (L1210 cells [1]): significant decrease
- IFN-γ production by CD8+ OT-I cells [4]: significantly higher

Compound: CSCC[C@@H]1NC(=O)[C@H](Cc2c[nH]c3ccccc23)NC(=O)[C@@H](NC(=O)[C@H](C)NC(=O)[C@H](CCC(N)=O)NC(=O)[C@@H]2CCCN2C(=O)[C@@H]2CCCN2C(=O)[C@H](CCCNC(=N)N)NC(=O)[C@H](CCCNC(=N)N)NC(=O)[C@H](CCCNC(=N)N)NC(=O)[C@H](CCC(N)=O)NC(=O)[C@H](CCCNC(=N)N)NC(=O)[C@H](CCCNC(=N)N)NC(=O)[C@H](CCCCN)NC(=O)[C@H](CCCCN)NC(=O)[C@H](CCCNC(=N)N)NC(=O)CN)CSSC[C@@H](C(=O)O)NC(=O)[C@H]([C@@H](C)O)NC(=O)CNC(=O)[C@H](CC(C)C)NC(=O)[C@H](Cc2c[nH]cn2)NC(=O)[C@H](CCCNC(=N)N)NC(=O)[C@@H]2CCCN2C(=O)[C@H](CO)NC1=O [peptide identified as SEQ ID NO: 1] (H-GRKKRRQRRRPPQACWMSPRHLGTC-OH; disulfide 15-25)
- IC50 [5]: 40 µM
- toxicity to target cells (K562 cells): showed toxicity
